Test system: P. aeruginosa IAM1095
Experiment: in vitro antimicrobial activity, two-fold agar-plate dilution method (MIC)
Assay type: cell-based
Conditions: Pseudomonas aeruginosa, heart infusion agar (HI-agar), 10^6 viable cells per ml, 37° C., 20 hours, read-out: minimal inhibitory concentration (MIC)
Procedure: in vitro Antimicrobial Activity was determined by the two-fold agar-plate dilution method as described below.
One loopful of an overnight culture of a test strain in Trypticase-soy broth (10^6 viable cells per ml) was streaked on heart infusion agar (HI-agar) containing graded concentrations of the test compound, and the minimal inhibitory concentration (MIC) was expressed in terms of μg/ml after incubation at 37° C. for 20 hours.

MIC: 0.78 µg/mL
SMILES: C[C@@H](O)[C@H]1C(=O)N2C(C(=O)O)=C(S[C@@H]3CN[C@H](CC[n+]4ccn(C)c4)C3)[C@H](C)[C@H]12 [Example 4-4), (4R,5S,6S)-6-[(1R)-1-hydroxyethyl]-4-methyl-3-[(2R,4S)-2-{2-(3-methyl-1-imidazolio)ethyl}pyrrolidin-4-yl]thio-7-oxo-1-azabicyclo[3.2.0]hept-2-ene-2-carboxylic acid chloride]
